We go through 4 molecules from patent US10465005B2, “JAML specific binding agents, antibodies, and uses related thereto” (Emory University, priority 2011, dated 2019).

Assay [1] relates to JAML shedding from differentiated HL60. The assay is described as follows: JAML shedding with protease inhibitors, differentiated HL60. The note with it: PMA 200 nM; cocktail 1:50, AEBSF 1 mM, PMSF 2 mM, Phenanthroline 5 mM, NEM 6 mM; sandwich ELISA; FIG. 6A. The class given is cell-based, human. The protocol:
JAML shedding from differentiated HL60 was assayed as described in the legend for FIG. 5. Protease inhibitors were added to cell suspensions during incubation in H^+ with or without PMA. Inhibitors used were Sigma inhibitor cocktail (Cat #P8340) used at 1:50 dilution, AEBSF 1 mM, PMSF 2 mM, Phenanthroline 5 mM and NEM 6 mM.
To explore the mechanisms for release of JAML from the surface of differentiated HL60 and PLB-985 cells during activation with PMA, PMA was added to cells in the presence or absence of a variety of protease inhibitors. The protease inhibitor cocktail from Sigma that targets serine proteases was used as well as cysteine proteases and several independent inhibitors. […] (Le Gall et al., 2003, JBC 278 No46 45255-45268).
Cells were suspended at 100×10^6 cells/ml in 50 ml centrifuge tubes. PMA was added at a final concentration of 200 nM and tubes incubated at 37° C. of 30 min. Supernatants were collected by centrifugation. To eliminate the presence of macroparticles in the supernatants, ultracentrifugation was performed in a table-top microcentrifuge (Beckman TL-100) at 100,000 g for 30 minutes. The “cleared” supernatants were assayed for the presence of soluble JAML.
Purified antibody DW100 (100 μl/well of 10 μg/ml dilution) was coated onto a high binding 96 well plate (Immulon II) overnight at 4° C. or 1½ hr at 37° C. After washing, 200 μl of 5% blocking solution (Roche) was added to each well for 1 hr at room temperature (RT). After washing, 100 μl supernatant samples in triplicates were added to the wells as well as serial dilutions of purified sJAML-His and incubated for 1 hr RT. After washing, 100 μl biotinylated DW216 antibodies was added at 10 μg/ml. This was followed after a wash by Streptavidin-HRP diluted at 1:4000. The wells were washed again and after addition of ABTS substrate, wells were analyzed using a microplate reader at 405 nm wavelength.
In general terms: ELISA stands for enzyme-linked immunosorbent assay.

Another assay deals with T1, JAML binding with CAR (Homo sapiens, UniProt Q86YT9).
T1 construct: soluble JAMLD1D2 was truncated and tagged after residue Leucine259; made in house; host or cells: HEK293T (sJAML-His)
T1 sequence (Q86YT9 20-259): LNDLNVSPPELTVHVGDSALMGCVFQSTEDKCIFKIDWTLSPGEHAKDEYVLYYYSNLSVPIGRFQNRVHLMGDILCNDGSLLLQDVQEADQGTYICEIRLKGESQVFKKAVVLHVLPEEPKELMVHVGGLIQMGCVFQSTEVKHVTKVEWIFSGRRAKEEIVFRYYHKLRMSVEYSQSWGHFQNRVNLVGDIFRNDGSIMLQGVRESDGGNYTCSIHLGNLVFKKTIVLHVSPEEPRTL
The assay is described as follows: CAR binding assay (ELISA, CAR-GST on immobilized sJAML-His). The note with it: CAR-GST 10 μg/ml on immobilized sJAML-His preincubated with antibody; FIG. 1C. The protocol:
FIG. 1C. CAR binding assay: sJAML-His was coated in Immulon II microtiter microtiter wells overnight, at 4° C. Microtiter wells were washed and blocked and 100 μl antibody solutions were added to wells for 1 hour RT. After washing, CAR-GST was added at 10 μg/ml for 1 hour RT, washed and the assay was developed with HRP conjugated goat anti GST followed by ABTS and OD measurement at 405 nm.
Because certain antibodies recognize the membrane distal domain of JAML, their ability to inhibit binding to CAR was tested. By ELISA, the levels of soluble CAR-GST bound to immobilized sJAML-His preincubated with anti JAML antibodies was measured. […] Thus, these antibodies recognize three different epitopes on JAML and that both DW100 and DW55 bind epitopes close to the JAML binding site. Using a cell aggregation assay, the possibility that DW100 could inhibit the binding of JAML to CAR expressed on the surface of cells was examined. […] This again confirms previously described JAML binding to CAR, as well as the specificity of DW100 (blocking) and DW216 (non-blocking) Abs to JAML.

In assay [2] the target is T2, CHO-JAML-His and CHO JAML-6xMyc (Homo sapiens, UniProt Q86YT9).
T2 construct: 6xMyc (cell line CHO JAML-6xMyc); expressed in transfected cells
T2 sequence (Q86YT9 20-394): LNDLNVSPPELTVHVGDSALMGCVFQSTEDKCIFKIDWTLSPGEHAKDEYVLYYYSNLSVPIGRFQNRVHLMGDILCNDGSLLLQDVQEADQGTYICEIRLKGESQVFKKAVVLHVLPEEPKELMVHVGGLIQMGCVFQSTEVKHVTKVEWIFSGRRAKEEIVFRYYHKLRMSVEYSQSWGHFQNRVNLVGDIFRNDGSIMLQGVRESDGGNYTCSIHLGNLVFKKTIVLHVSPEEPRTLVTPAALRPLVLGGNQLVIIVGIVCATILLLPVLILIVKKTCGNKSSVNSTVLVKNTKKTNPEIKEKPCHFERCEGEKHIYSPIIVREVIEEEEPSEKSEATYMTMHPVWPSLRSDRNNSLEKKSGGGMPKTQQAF
The assay is described as follows: FACS staining of stably transfected CHO-JAML cell lines. It is filed as binding. The note with it: FIG. 1A. The source says: BALB/c mice were immunized with recombinant soluble fragment of JAML.D1D2 tagged with 10 His residues at the C-terminus (sJAML-His), generated in H293T cells and purified by Nickel chromatography. After the 4th boost, mice were given a final immunization and, 3 days later, spleen cells harvested and fused to the myeloma cell line P3U1. Hybridomas were selected in HAT medium and supernatants of clones were subjected to screening first to immobilized, soluble JAML and followed by staining of CHO-JAML stable transfectants. Three hybridomas were selected and antibodies were purified from ascites. FACS staining profiles of mAbs using two different, stably transfected CHO-JAML cell lines, CHO-JAML-His and CHO JAML-6xMyc, both membrane bound and tagged at the C-terminus with either 10-His or 6xMyc. Control antibody is 9E10 anti Myc.
These hybridomas were further tested for reactivity against tagged, full-length JAML expressed on the surface of cultured cells. CHO-JAML-6XMyc transfectants were aliquoted and pelleted into round bottom 96 well plates. 100 μl hybridoma supernatants were added for 1 hr at 4° C. Cells were washed and positive wells were identified by FACS analysis using Goat anti Mouse-AlexaFluor 488. Cells from positive wells were cloned by limiting dilution at one cell per well and expanded first in DMEM-10% FBS containing HAT then in medium containing HT (ATCC) and later DMEM, 10% FBS. The cloned cells of interest were sent to Harlan Laboratories (Indianapolis, Ind.) for production of ascites. Antibodies were purified from ascitic fluid using proteinA-Sepharose (GE Healthcare) followed by dialysis against PBS. Aliquots were frozen at −80° C. Ig subclass of each antibody was determined by using the IsoStrip Mouse Monoclonal Antibody Isotyping Kit (Roche Applied Science). […]
Cells suspensions of adherent cells were prepared by trypsinization with Trypsin-EDTA (Sigma). […] After final washes, cells were analyzed using FACS Calibur. […] All samples were stained for JAML (DW100 mAb) and CD11b/CD18 (CBRM 1/29), and only CD11b/CD18 positive cells (PMNs) were analyzed for JAML expression.

Assay [3] relates to T84 epithelial monolayers. The assay is described as follows: Scratch wound closure of epithelial monolayers. It is filed as cell-based, human. The note with it: T84; mAb 30 μg/ml; FIG. 10A,B. The protocol:
T84 epithelial monolayers grown to confluence were wounded by introduction of a single linear scratch wound using a 20-μl plastic pipette tip. Wound closure was monitored over 72 h in the absence or presence of PMN or sJAML. The scale bar is 10 μm.
Whether JAML binding to CAR would affect epithelial wound restitution was investigated. […] If soluble JAML interactions with CAR play a role, the effect could be reversed with the addition of blocking DW100 mAb.
Cell grown in 24-well tissue culture plates received one linear wound using a 20-μl plastic pipette tip attached to low suction. Wounded monolayers were washed once with PBS to remove detached cells and debris, and incubated with the appropriate stimulus added to the medium. The rate of migration was measured by determining the wound area immediately after wounding (t=0) and at the indicated time points. The data are presented as the area of the wound at each time point normalized to t=0. The experiments were carried out in triplicates per condition, and the data shown are representative of 4 independent experiments.

Entries after “also recorded” stand apart in the source; their conditions may differ.

Turning to `NCCc1ccc(S(=O)(=O)F)cc1` [AEBSF], the “inhibition of PMA-induced JAML shedding, differentiated HL60” value (“inhibition … differentiated HL60” for short) in assay [1] is “No decrease in JAML shedding”. For the molecule `CCN1C(=O)C=CC1=O` [N-Ethyl maleimide, N-Ethylmaleimide], the “inhibition … differentiated HL60” value in assay [1] is given as “No decrease in JAML shedding”. Turning to `O=S(=O)(F)Cc1ccccc1` [PMSF, Phenylmethylsulfonyl fluoride], in assay [1], the “inhibition … differentiated HL60” value is given as “showed some inhibition”.

B1: DW216: monoclonal anti-human JAML antibody (IgG1,κ), non-blocking; VH SEQ ID NO:21, VL SEQ ID NO:24 (antibody, V domains shown)
VH: DVQLVESGPGLVKPSQSLSLTCTVTGYSITSDYAWNWIRQFPGNKLEWMGYISSSGNSNYNPSLKSRISITRDTSKNQFFLQLNSVTTEDTATYYCAGATGYSMDYWGQGTTLTVK
VL: VLTQSPAIMSASLGERVTMTCTASSSVSSSYLHWYQQKPGSSPKLWIYSTSNLASGVPARFSGSGSGTSYSLTISSMEAEDAATYYCHQYHRSPFTFGSGTKLELK
B1: the “inhibition of CAR binding to JAML” value with JAML binding with CAR is “did not inhibit at all; also recorded: whereas DW216 did not”. Besides, in assay [2], the “FACS staining of CHO-JAML transfectant lines” value was “stained both transfectant lines equally well”. In addition, in assay [3], the “reversal of PMN or sJAML inhibition of wound closure” value is reported as “but not DW216 mAb (30 μg/ml) significantly improved wound restitution”.
